Laboratory results: ChEMBL document CHEMBL1201862, “PubChem BioAssay data set” (2004)
Active and inactive are the calls of the source.

Key:
Genome polyprotein = Genome polyprotein (Hepatitis C virus, UniProt Q2Q167); assay: disruption of hepatitis C core self-association – biochemical, TR-FRET, dose response (AID 2159); design: species or system Hepacivirus hominis;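 further: blocks dimerization of HCV core protein measured by TR-FRET between tagged core106 pairs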
[1] = target: Sphingosine 1-phosphate receptor 2 (Homo sapiens, UniProt O95136); assay: Dose Response Cell Based Assay for Agonists of the S1P2 Receptor. [Related pubchem assays: 729, 736, 843 ]; type: functional
[2] = target: Eukaryotic translation initiation factor 4E (Mus musculus, UniProt P63073); assay: blockers of eIF4G binding by eIF4E – biochemical, TR-FRET, dose response (AID 855); type: functional;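 further: potency for disrupting eIF4E binding to eIF4GI seen as loss of FRET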
[3] = target: Luciferin 4-monooxygenase (Photinus pyralis, UniProt P08659); assay: inhibition of purified Photinus pyralis luciferase – biochemical, luminescence, dose response (AID 1891)
[4] = Luminescence Cell-Based Dose Confirmation HTS to Identify Inhibitors of Platelet Dense Granule Release. [Related pubchem assays: 1663 (Primary HTS), 1678 (Summary of Project)]; type: functional
[5] = Fluorescence Cell-Based Dose Response to Identify Inhibitors of Thrombin Receptor-Activating Peptide SFLLRN-Mediated P-Selectin Induction on Platelets. [Related pubchem assays: 1663 (Primary HTS), 1889 (retest at dose ), 1891 (counterscreen), 1678 (Project Summary)]; type: functional

Sequence of Eukaryotic translation initiation factor 4E (P63073 whole entry): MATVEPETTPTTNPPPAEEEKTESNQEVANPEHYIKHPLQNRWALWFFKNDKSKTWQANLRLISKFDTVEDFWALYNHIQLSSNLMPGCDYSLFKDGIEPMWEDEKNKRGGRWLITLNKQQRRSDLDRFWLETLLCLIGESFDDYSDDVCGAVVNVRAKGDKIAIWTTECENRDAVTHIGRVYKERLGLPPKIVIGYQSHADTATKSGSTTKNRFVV
Sequence of Luciferin 4-monooxygenase (P08659 whole entry): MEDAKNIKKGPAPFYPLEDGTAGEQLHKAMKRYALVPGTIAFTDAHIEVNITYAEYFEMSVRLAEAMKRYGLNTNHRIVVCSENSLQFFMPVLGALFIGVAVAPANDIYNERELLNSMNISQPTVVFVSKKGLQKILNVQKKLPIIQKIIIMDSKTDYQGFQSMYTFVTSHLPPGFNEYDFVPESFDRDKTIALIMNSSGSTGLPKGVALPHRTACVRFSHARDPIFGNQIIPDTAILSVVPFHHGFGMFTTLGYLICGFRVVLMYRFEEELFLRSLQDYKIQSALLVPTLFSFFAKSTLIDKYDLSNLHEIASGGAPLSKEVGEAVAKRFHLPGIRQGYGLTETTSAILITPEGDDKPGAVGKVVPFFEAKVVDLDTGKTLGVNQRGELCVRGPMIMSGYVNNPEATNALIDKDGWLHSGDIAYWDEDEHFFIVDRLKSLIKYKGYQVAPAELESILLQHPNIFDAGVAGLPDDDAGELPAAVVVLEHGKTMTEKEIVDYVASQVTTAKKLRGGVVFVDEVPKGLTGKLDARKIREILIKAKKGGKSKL
Sequence of Sphingosine 1-phosphate receptor 2 (O95136 whole entry): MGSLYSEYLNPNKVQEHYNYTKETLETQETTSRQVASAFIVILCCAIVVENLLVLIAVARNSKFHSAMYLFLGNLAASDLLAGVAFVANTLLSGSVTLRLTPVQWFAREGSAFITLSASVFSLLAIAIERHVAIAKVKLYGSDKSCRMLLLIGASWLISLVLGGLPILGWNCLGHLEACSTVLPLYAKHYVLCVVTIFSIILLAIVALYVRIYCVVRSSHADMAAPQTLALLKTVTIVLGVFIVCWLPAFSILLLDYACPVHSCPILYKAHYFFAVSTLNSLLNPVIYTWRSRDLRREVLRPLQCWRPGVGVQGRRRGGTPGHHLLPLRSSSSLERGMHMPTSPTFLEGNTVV
Sequence of Genome polyprotein (Q2Q167 whole entry): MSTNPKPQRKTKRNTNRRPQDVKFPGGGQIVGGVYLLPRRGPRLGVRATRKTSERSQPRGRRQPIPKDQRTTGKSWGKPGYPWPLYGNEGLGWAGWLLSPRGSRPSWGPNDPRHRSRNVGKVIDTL

## Cc1ccc(-c2nc(=S)c3c(n2Cc2ccco2)CC(C)(C)OC3)cc1
Genome polyprotein
  IC50: > 49.8 µM (not active)

## CCOc1cccc(OCCCCn2ccnc2)c1
[1]
  EC50: > 50 µM (not active)
[2]
  IC50: > 64 µM (inactive)

## CCC(=O)Nc1cccc(NC(=O)c2ccccc2Cl)c1
[3]
  EC50: > 112 µM (not active)
[4]
  EC50: 3.42 µM (active)
[5]
  EC50: < 30 µM (active)
